Patent US20220395559A1, “SOLID COMPOSITIONS COMPRISING A GLP-1 AGONIST, AN SGLT2 INHIBITOR AND A SALT OF N-(8-(2-HYDROXYBENZOYL)AMINO)CAPRYLIC ACID” (Novo Nordisk A/S, priority 2019, published 2022)
Read-outs that look alike come from different tables or passages of the source.

Legend:
[1] = pH 6
[2] = SNAC solubility vs SNAC control, hydrotrope 200 mg/mL, pH 6
[3] = hydrotrope 200 mg/mL in water, pH 6, room temperature, 4 hours incubation

SMILES | effect on SNAC solubility (FIG. 1) [1] | Fold increase in solubility (pH 6) | SNAC concentration (pH 6) [mg/mL] | Fold increase in solubility [2] | SNAC concentration [3] [mg/mL]
NC(=O)c1cccnc1 [Nicotinamide] | dose dependent effect | – | – | – | –
O=C([O-])c1ccccc1O.[Na+] [Sodium salicylate] | – | 2.7 | 1.59 | – | –
O=C(O[C@@H]1Cc2c(O)cc(O)cc2O[C@@H]1c1cc(O)c(O)c(O)c1)c1cc(O)c(O)c(O)c1 [Epigallocatechin gallate] | – | – | – | 9.6 | 5.66
NC(N)=O [Urea] | – | – | – | 1.3 | 0.77
CCN(CC)C(=O)c1cccnc1 [N,N diethyl nicotinamide] | – | – | – | 7.8 | 4.58
CN(C)C(=O)c1ccccc1 [N,N dimethyl benzamide] | – | – | – | 38 | 22.46
